Source: patent US8546588B2, “Substituted hydroxamic acids and uses thereof” (Millennium Pharmaceuticals, Inc., priority 2010, dated 2013)
pIC50: −log10 of the molar value.

The compounds below were run against T1, purified human HDAC6 (Homo sapiens, UniProt Q9UBN7) (assay: HDAC6 Enzyme Assay). Details: substrate Ac-Arg-Gly-Lys(Ac)-AMC peptide, 1 hour at 30° C.
T1 construct: purchased BPS Bioscience 5006
T1 sequence (Q9UBN7 1-1215): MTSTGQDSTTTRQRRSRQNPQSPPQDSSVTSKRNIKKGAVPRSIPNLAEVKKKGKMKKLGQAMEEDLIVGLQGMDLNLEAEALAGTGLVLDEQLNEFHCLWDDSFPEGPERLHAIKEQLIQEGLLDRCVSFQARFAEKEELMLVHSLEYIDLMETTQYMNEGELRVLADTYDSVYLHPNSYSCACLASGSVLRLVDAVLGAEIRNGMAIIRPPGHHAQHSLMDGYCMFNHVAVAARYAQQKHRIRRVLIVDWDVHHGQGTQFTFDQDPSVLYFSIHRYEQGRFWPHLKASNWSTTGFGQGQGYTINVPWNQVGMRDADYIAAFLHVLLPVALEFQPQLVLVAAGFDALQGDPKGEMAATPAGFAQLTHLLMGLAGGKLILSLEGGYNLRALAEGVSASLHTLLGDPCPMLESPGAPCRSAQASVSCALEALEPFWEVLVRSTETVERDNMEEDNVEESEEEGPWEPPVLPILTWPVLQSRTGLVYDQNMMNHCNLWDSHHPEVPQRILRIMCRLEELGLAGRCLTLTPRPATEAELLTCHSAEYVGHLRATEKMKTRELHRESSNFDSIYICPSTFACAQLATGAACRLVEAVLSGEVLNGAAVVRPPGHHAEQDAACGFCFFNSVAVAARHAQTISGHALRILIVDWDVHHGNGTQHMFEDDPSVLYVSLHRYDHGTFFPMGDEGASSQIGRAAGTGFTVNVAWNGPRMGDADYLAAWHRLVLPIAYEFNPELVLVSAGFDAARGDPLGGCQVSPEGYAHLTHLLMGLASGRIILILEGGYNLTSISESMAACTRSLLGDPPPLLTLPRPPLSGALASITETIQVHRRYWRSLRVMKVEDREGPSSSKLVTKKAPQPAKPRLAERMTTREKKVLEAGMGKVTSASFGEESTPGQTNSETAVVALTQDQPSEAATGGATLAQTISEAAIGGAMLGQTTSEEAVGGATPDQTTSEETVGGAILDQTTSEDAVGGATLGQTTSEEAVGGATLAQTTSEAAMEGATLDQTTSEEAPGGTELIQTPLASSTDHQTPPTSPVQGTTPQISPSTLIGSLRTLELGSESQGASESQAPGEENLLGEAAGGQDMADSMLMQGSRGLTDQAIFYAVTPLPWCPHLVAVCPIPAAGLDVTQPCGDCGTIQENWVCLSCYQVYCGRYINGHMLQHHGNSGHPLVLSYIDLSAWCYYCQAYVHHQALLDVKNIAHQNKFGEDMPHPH
Assay type: biochemical
Method in brief: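 Purified human HDAC6 incubated 1 h at 30 °C with Ac-Arg-Gly-Lys(Ac)-AMC peptide and compound; reaction stopped with trichostatin A, then trypsin releases AMC, read by fluorescence (Ex 340/Em 460 nm). IC50 from concentration-response curves relative to DMSO controls.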

`Cc1ccccc1CNC(=O)NC(C)c1ccc(C(=O)NO)s1` (stereo not shown) [Compound I-42, N-hydroxy-5-[1-({[(2-methylbenzyl)amino]carbonyl}amino)ethyl]thiophene-2-carboxamide] and `C[C@H](NC(=O)c1cc2ccccc2s1)c1ccc(C(=O)NO)s1` [Compound I-21, N-((1S)-1-{5-[(hydroxyamino)carbonyl]-2-thienyl}ethyl)-1-benzothiophene-2-carboxamide] cannot be ordered by pIC50: greater than 7.00 for the first, greater than 7.00 for the second.

`C[C@@H](NC(=O)c1cc2ccccc2o1)c1cc(C(=O)NO)on1` [Compound I-181, (R)-3-(1-(benzofuran-2-carboxamido)ethyl)-N-hydroxyisoxazole-5-carboxamide] and `C[C@@H](NC(=O)c1cc2ccccc2s1)c1cc(C(=O)NO)on1` [Compound I-176, 3-{(1R)-1-[(1-benzothien-2-ylcarbonyl)amino]ethyl}-N-hydroxyisoxazole-5-carboxamide] cannot be ordered by pIC50: less than 6.30 for the first, less than 6.30 for the second.
